This note sets out measurements from US9574176B2 (priority 2012, dated 2017).

Assay [1] relates to muscarinic receptor. The assay is classed as cell-based, mouse.
For assay [2], the system named is NVDCC-deficient mouse-derived neural stem cells. Type of assay: cell-based.
Assay [3] deals with nerve cells differentiated from NVDCC-deficient mouse hippocampus-derived neural stem cells. Type of assay: cell-based.
In assay [4] the test system is nicotinic receptor.

With `C[C@@H]1O[C@H](C[N+](C)(C)C)C[C@H]1O` [muscarine], the “reaction of differentiated neurons (calcium fluorescence)” value in assay [1] was “reacted”. For the compound `CC1=C(/C=C/C(C)=C/C=C/C(C)=C/C(=O)O)C(C)(C)CCC1` [ATRA, all-trans retinoic acid], the differentiation on induction result in assay [2] is reported as “most cells differentiated into MAP2 (microtubule-associated protein 2)-positive nerve cells”. As for tetradotoxin [TTX], the “activity potential of the differentiated neurons (spike frequency)” value in assay [3] is reported as “suppressed”.

For `CN1CCCC1c1cccnc1` (centres unmarked) [nicotine], in assay [4], the “reaction of differentiated neurons (calcium fluorescence)” value was “reacted”.

For `Nc1ccncc1` [4-AP, 4-aminopyridine], in assay [3], the “activity potential of the differentiated neurons (spike frequency)” value is on record as “significantly increased”.
